Reference: US20110152166A1, “METHOD OF MODULATION OF PROTEIN PHOSPHORYLATION-DEPENDENT CONFORMATIONAL TRANSITIONS WITH LOW MOLECULAR WEIGHT COMPOUNDS” (priority 2006, published 2011)
Residue numbers refer to the chain shown, from its start. Ends that are not written are not given here.

Columns and labels:
Experiment in all cases: PDK1 activity assay with T308tide
Assay type in all cases: biochemical
GST-PDK1 [Leu155Val] = biological target: T1, GST-PDK1 [Leu155Val] (Homo sapiens, UniProt O15530, L155V)
T1 construct: different protein constructs, comprising the full length protein or the catalytic domain alone; made in house; host or cells: HEK293 cells (pEBG-2T-PDK1 mutant)

GST-PDK1 [Gln150Met] = biological target: T2, GST-PDK1 [Gln150Met] (Homo sapiens, UniProt O15530, Q150M)
T2 construct: different protein constructs, comprising the full length protein or the catalytic domain alone; made in house; host or cells: HEK293 cells (pEBG-2T-PDK1 mutant)
T2 sequence (O15530 1-556 Q150M): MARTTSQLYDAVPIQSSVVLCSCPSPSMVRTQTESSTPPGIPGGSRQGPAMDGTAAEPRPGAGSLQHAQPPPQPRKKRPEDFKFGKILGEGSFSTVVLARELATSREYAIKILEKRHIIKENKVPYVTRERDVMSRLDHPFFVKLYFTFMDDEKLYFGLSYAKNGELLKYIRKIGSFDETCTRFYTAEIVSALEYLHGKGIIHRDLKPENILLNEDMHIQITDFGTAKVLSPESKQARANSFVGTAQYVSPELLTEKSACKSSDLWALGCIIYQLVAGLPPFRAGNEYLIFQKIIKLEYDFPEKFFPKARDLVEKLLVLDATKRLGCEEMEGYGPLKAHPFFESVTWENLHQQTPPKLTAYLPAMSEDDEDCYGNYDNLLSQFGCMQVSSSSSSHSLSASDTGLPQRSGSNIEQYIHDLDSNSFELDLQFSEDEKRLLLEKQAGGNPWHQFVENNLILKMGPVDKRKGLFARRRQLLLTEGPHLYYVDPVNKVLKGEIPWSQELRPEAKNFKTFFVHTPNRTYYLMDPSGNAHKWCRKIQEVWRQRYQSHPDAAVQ

GST-PDK1 [Val127Thr] = biological target: T3, GST-PDK1 [Val127Thr] (Homo sapiens, UniProt O15530, V127T); conditions: for AC50 / Max. activity: GST-PDK1 [Val127Thr]; for activation of PDK1 Val127Thr mutant: Val127 replaced by Thr
T3 construct: different protein constructs, comprising the full length protein or the catalytic domain alone; made in house; host or cells: HEK293 cells (pEBG-2T-PDK1 mutant)
T3 sequence (O15530 1-556 V127T): T2 sequence (O15530 1-556 Q150M) with V127T, M150Q

GST-PDK1 [Phe157Met] = biological target: T4, GST-PDK1 [Phe157Met] (Homo sapiens, UniProt O15530, F157M)
T4 construct: different protein constructs, comprising the full length protein or the catalytic domain alone; made in house; host or cells: HEK293 cells (pEBG-2T-PDK1 mutant)
T4 sequence (O15530 1-556 F157M): T2 sequence (O15530 1-556 Q150M) with M150Q, F157M

T1 sequence (O15530 whole entry L155V, the tested form may be a part): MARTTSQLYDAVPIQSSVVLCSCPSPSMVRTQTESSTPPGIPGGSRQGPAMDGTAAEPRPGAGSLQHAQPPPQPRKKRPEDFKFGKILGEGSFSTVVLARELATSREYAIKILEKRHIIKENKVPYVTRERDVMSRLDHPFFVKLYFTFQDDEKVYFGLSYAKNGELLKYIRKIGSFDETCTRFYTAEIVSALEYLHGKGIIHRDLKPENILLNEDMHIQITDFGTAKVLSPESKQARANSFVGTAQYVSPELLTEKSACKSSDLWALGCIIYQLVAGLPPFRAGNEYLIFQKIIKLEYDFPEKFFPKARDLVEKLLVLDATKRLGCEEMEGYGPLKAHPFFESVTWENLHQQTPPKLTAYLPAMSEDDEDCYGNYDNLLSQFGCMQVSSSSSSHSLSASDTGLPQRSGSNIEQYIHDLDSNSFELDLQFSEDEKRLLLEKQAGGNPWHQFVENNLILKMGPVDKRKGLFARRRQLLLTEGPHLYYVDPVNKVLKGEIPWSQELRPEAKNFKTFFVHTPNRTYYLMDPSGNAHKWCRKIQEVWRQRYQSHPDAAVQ

AC50 (GST-PDK1 [Leu155Val])	AC50 (GST-PDK1 [Gln150Met]) [µM]	Max. activity (GST-PDK1 [Gln150Met]) [U/mg]	AC50 (GST-PDK1 [Val127Thr]) [µM]	Max. activity (GST-PDK1 [Val127Thr]) [U/mg]	activation of PDK1 Val127Thr mutant (GST-PDK1 [Val127Thr]) [%]	AC50 (GST-PDK1 [Phe157Met]) [µM]	Max. activity (GST-PDK1 [Phe157Met]) [U/mg]	Compound
No Effect	177 ± 64	2.28 ± 0.26	104 ± 58	1.69 ± 0.2	240	140 ± 100	0.9 ± 0.3	O=C(O)CSC(CC(=O)c1ccc(Cl)cc1)c1ccccc1 (stereo not shown) [Compound 1]
No Effect	0.86 ± 0.25	2.11 ± 0.15	0.14 ± 0.07	2.36 ± 0.15	260	1.52 ± 0.59	1.7 ± 0.24	REPRILSEEEQEMFRDFDYIADWC [PIFtide, reference compound]
